Experimental data: patent US12281122B1, “PI3K inhibitors” (Cogent Biosciences, Inc., priority 2023, dated 2025)

Experiments:
[1] = system: T47D (PI3Kα-H1047R) cell line; assay: HTRF phospho-AKT(S473) cell assay in T47D cells; type: cell-based, human; details: Homo sapiens, 2 hours compound incubation
Experimental: (§1) Compounds in the present disclosure were tested in a cell based HTRF phospho-AKT(S473) (CisBio/Revvity) assay in human breast cancer cell lines as a measurement of PIK3CA activity through measuring AKT, a downstream effector. The activity of mutant PI3Kα-H1047R and PI3Kα-Wild Type was measured in the T47D (PI3Kα-H1047R) and SKBR3 (PI3Kα-Wild Type) cell lines, respectively. T47D cells were plated at 20,000 cells per well in 50 μL in RPMI medium supplemented with 10% FBS and 0.2 units/mL insulin, in 384 well plates. SKBR3 cells were plated at 25,000 cells per well in 50 μL in McCoy's 5A medium supplemented with 10% FBS, in 384 well plates. Cells were plated using a Combi Multidrop reagent dispenser (ThermoFisher), and placed in 5% CO2, 37° C. incubator overnight to adhere.
(§2) The next day, cells were treated with either compounds or vehicle (DMSO) in a 12-fold dose response curve of 1:3 dilutions, with 5 μM and 10 μM as the top concentrations for the T47D and SKBR3 cell lines, respectively. Compound treatment was facilitated via the D300e digital dispenser (Tecan), with a maximum DMSO concentration of 0.5%. Following compound addition, cell plates were incubated for 2 hours in 5% CO2, 37° C. incubator. The SKBR3 cells were stimulated and treated with 70 ng/ml PDGF-BB ligand (ThermoFisher) for the remaining 15 minutes of the incubation. Following compound incubation, compound and media was aspirated from the cells and 25 μL of supplemented lysis buffer was added per well, and incubated for 45 minutes at room temperature, shaking at 600 rpm. Next, 16 μL of cell lysate was added to a 384 well low volume ProxyPlate (Perkin Elmer/Revvity) mixed with 4 μL of HTRF antibodies (1:1 Eu Cryptate+d2 Cryptate). HTRF supplemented lysis buffer and antibody reagents were used from the phosphor-AKT(S473) HTRF assay kit (CisBio/Revvity), following manufacturers protocol recommendations. Plates were sealed and incubated at 4° C. overnight.
(§3) The following day, plates were centrifuged for 1 minute at 1000 rpm, and read on a PHERAstar plate reader. IC50 values were calculated using Spotfire software.

[2] = system: SKBR3 (PI3Kα-Wild Type) cell line; assay: HTRF phospho-AKT(S473) cell assay in SKBR3 cells; type: cell-based, human; details: Homo sapiens, SK-BR-3, 2 hours compound incubation, PDGF-BB stimulated
Experimental: as §1, §2, §3

[3] = HTRF phospho-AKT(S473), T47D (PI3Kα-H1047R) cells
[4] = HTRF phospho-AKT(S473), SKBR3 (PI3Kα-Wild Type) cells
[5] = T47D (PI3Kα-H1047R) cells, HTRF phospho-AKT(S473)
[6] = SKBR3 (PI3Kα-Wild Type) cells, HTRF phospho-AKT(S473)

An IC50 [1, 3] of 0.25 to 0.5 µM and an IC50 [2, 4] of no less than 5 µM were found for `Cc1cc([C@@H](C)Nc2ccc(Cl)nc2C(=O)NS(C)(=O)=O)c2nc(-c3ccn4nc(C)nc4c3)n(C)c(=O)c2c1` [Compound 822, (R)-6-chloro-3-((1-(3,6-dimethyl-2-(2-methyl-[1,2,4]triazolo[1,5-a]pyridin-7-yl)-4-oxo-3,4-dihydroquinazolin-8-yl)ethyl)amino)-N-(methylsulfonyl) picolinamide] in this work.
An IC50 [1, 5] of less than 0.25 µM and an IC50 [2, 6] of 1 to 5 µM were found for `Cc1cc([C@@H](C)Nc2ccc(Cl)nc2C(=O)NS(C)(=O)=O)c2nc(N3CCC(c4ccnn4C)CC3)n(C)c(=O)c2c1` [Compound 389, (R)-6-chloro-3-((1-(3,6-dimethyl-2-(4-(1-methyl-1H-pyrazol-5-yl)piperidin-1-yl)-4-oxo-3,4-dihydroquinazolin-8-yl)ethyl)amino)-N-(methylsulfonyl) picolinamide] in this work.
An IC50 [1, 5] of less than 0.25 µM and an IC50 [2, 6] of 1 to 5 µM were found for `Cc1cc([C@@H](C)Nc2ccc(Cl)nc2C(=O)NS(C)(=O)=O)c2nc(N3Cc4cn(-c5cnn(C)c5)nc4C3)n(C)c(=O)c2c1` [Compound 245, (R)-6-chloro-3-((1-(3,6-dimethyl-2-(2-(1-methyl-1H-pyrazol-4-yl)-2,6-dihydropyrrolo[3,4-c]pyrazol-5(4H)-yl)-4-oxo-3,4-dihydroquinazolin-8-yl)ethyl)amino)-N-(methylsulfonyl) picolinamide] in this work.
An IC50 [1, 5] of less than 0.25 µM and an IC50 [2, 6] of no less than 5 µM were found for `Cc1cc([C@@H](C)Nc2ccc(Cl)nc2C(=O)NS(C)(=O)=O)c2nc(N3Cc4cnn(-c5ccccc5C)c4C3)n(C)c(=O)c2c1` [Compound 191, (R)-6-chloro-3-((1-(3,6-dimethyl-4-oxo-2-(1-(o-tolyl)-4,6-dihydropyrrolo[3,4-c]pyrazol-5(1H)-yl)-3,4-dihydroquinazolin-8-yl)ethyl)amino)-N-(methylsulfonyl) picolinamide] in this work.
An IC50 [1, 5] of less than 0.25 µM and an IC50 [2, 6] of 1 to 5 µM were found for `Cc1cc([C@@H](C)Nc2ccc(Cl)nc2C(=O)NS(C)(=O)=O)c2nc(N3CCc4nn(CC(F)(F)F)cc4C3)n(C)c(=O)c2c1` [Compound 220, (R)-6-chloro-3-((1-(3,6-dimethyl-4-oxo-2-(2-(2,2,2-trifluoroethyl)-2,4,6,7-tetrahydro-5H-pyrazolo[4,3-c]pyridin-5-yl)-3,4-dihydroquinazolin-8-yl)ethyl)amino)-N-(methylsulfonyl) picolinamide] in this work.
An IC50 [1, 3] of less than 0.25 µM and an IC50 [2, 4] of 1 to 5 µM were found for `Cc1cc([C@@H](C)Nc2ccc(Cl)nc2C(=O)NS(C)(=O)=O)c2nc(-c3ccc4c(c3)C(=O)N(C)CC4)n(C)c(=O)c2c1` [Compound 779, (R)-6-chloro-3-((1-(3,6-dimethyl-2-(2-methyl-1-oxo-1,2,3,4-tetrahydroisoquinolin-7-yl)-4-oxo-3,4-dihydroquinazolin-8-yl)ethyl)amino)-N-(methylsulfonyl) picolinamide] in this work.
An IC50 [1, 3] of 0.5 to 1 µM and an IC50 [2, 4] of no less than 5 µM were found for `Cc1cc([C@@H](C)Nc2ccc(Cl)nc2C(=O)NS(C)(=O)=O)c2nc(N3C[C@@H]4C[C@H]3CN4c3ncc(Cl)cn3)n(C)c(=O)c2c1` [Compound 667, 6-chloro-3-(((R)-1-(2-((1S,4S)-5-(5-chloropyrimidin-2-yl)-2,5-diazabicyclo [2.2.1]heptan-2-yl)-3,6-dimethyl-4-oxo-3,4-dihydroquinazolin-8-yl)ethyl)amino)-N-(methylsulfonyl) picolinamide] in this work.
An IC50 [1, 5] of less than 0.25 µM and an IC50 [2, 6] of no less than 5 µM were found for `Cc1cc([C@@H](C)Nc2ccc(Cl)nc2C(=O)NS(C)(=O)=O)c2nc(N3CCC(n4c(C)nc5ccccc54)CC3)n(C)c(=O)c2c1` [Compound 268, (R)-6-chloro-3-((1-(3,6-dimethyl-2-(4-(2-methyl-1H-benzo[d]imidazol-1-yl)piperidin-1-yl)-4-oxo-3,4-dihydroquinazolin-8-yl)ethyl)amino)-N-(methylsulfonyl) picolinamide] in this work.
An IC50 ([1]; T47D (PI3Kα-H1047R) cell line, phospho-AKT(S473) HTRF) of 0.25 to 0.5 µM and an IC50 ([2]; SKBR3 (PI3Kα-Wild Type) cell line, phospho-AKT(S473) HTRF) of 1 to 5 µM were found for `Cc1cc([C@@H](C)Nc2ccc(Cl)nc2C(=O)NS(C)(=O)=O)c2nc(-c3ccc4nn(C)cc4n3)n(C)c(=O)c2c1` [Compound 841, (R)-6-chloro-3-((1-(3,6-dimethyl-2-(2-methyl-2H-pyrazolo [4,3-b]pyridin-5-yl)-4-oxo-3,4-dihydroquinazolin-8-yl)ethyl)amino)-N-(methylsulfonyl) picolinamide] in this work.
An IC50 [1, 3] of less than 0.25 µM and an IC50 [2, 4] of no less than 5 µM were found for `C[C@@H](Nc1ccc(Cl)nc1C(=O)NS(C)(=O)=O)c1cc(C(F)(F)F)cc2c(=O)n(C)c(N3CCC(c4nn(C)cc4F)CC3)nc12` [Compound 453, (R)-6-chloro-3-((1-(2-(4-(4-fluoro-1-methyl-1H-pyrazol-3-yl)piperidin-1-yl)-3-methyl-4-oxo-6-(trifluoromethyl)-3,4-dihydroquinazolin-8-yl)ethyl)amino)-N-(methylsulfonyl) picolinamide] in this work.
An IC50 [1, 5] of less than 0.25 µM and an IC50 [2, 6] of 1 to 5 µM were found for `Cc1cc([C@@H](C)Nc2ccc(Cl)nc2C(=O)NS(C)(=O)=O)c2nc(N3C[C@H]4C[C@@H]3CN4c3ccn(C)n3)n(C)c(=O)c2c1` [Compound 229, 6-chloro-3-(((R)-1-(3,6-dimethyl-2-((1R,4R)-5-(1-methyl-1H-pyrazol-3-yl)-2,5-diazabicyclo[2.2.1]heptan-2-yl)-4-oxo-3,4-dihydroquinazolin-8-yl)ethyl)amino)-N-(methylsulfonyl) picolinamide] in this work.
An IC50 [1, 5] of 0.25 to 0.5 µM and an IC50 [2, 6] of no less than 5 µM were found for `Cc1cc([C@@H](C)Nc2ccc(Cl)nc2C(=O)NS(C)(=O)=O)c2nc(C3CCN(c4nn(C)cc4F)CC3)n(C)c(=O)c2c1` [Compound 429, (R)-6-chloro-3-((1-(2-(1-(4-fluoro-1-methyl-1H-pyrazol-3-yl)piperidin-4-yl)-3,6-dimethyl-4-oxo-3,4-dihydroquinazolin-8-yl)ethyl)amino)-N-(methylsulfonyl) picolinamide] in this work.
An IC50 [1, 3] of less than 0.25 µM and an IC50 [2, 4] of 1 to 5 µM were found for `[2H]C([2H])([2H])n1ccc([C@H]2[C@@H]3CN(c4nc5c([C@@H](C)Nc6ccc(Cl)nc6C(=O)NS(C)(=O)=O)cc(C)cc5c(=O)n4CC)C[C@@H]32)n1` [Compound 731, 6-chloro-3-(((R)-1-(3-ethyl-6-methyl-2-((1R,5S,6R)-6-(1-(methyl-d3)-1H-pyrazol-3-yl)-3-azabicyclo[3.1.0]hexan-3-yl)-4-oxo-3,4-dihydroquinazolin-8-yl)ethyl)amino)-N-(methylsulfonyl) picolinamide] in this work.
An IC50 [1, 3] of less than 0.25 µM and an IC50 [2, 4] of 1 to 5 µM were found for `Cc1cc([C@@H](C)Nc2ccc(Cl)nc2C(=O)NS(C)(=O)=O)c2nc(N3C[C@@H]4[C@H](C3)[C@H]4c3ccn(C(F)F)n3)n(C)c(=O)c2c1` [Compound 470, 6-chloro-3-(((R)-1-(2-((1R,5S,6R)-6-(1-(difluoromethyl)-1H-pyrazol-3-yl)-3-azabicyclo[3.1.0]hexan-3-yl)-3,6-dimethyl-4-oxo-3,4-dihydroquinazolin-8-yl)ethyl)amino)-N-(methylsulfonyl) picolinamide] in this work.
An IC50 [1, 5] of 0.25 to 0.5 µM and an IC50 [2, 6] of 1 to 5 µM were found for `COc1cncc(C2CCN(c3nc4c([C@@H](C)Nc5ccc(Cl)nc5C(=O)NS(C)(=O)=O)cc(C)cc4c(=O)n3C)CC2)n1` [Compound 400, (R)-6-chloro-3-((1-(2-(4-(6-methoxypyrazin-2-yl)piperidin-1-yl)-3,6-dimethyl-4-oxo-3,4-dihydroquinazolin-8-yl)ethyl)amino)-N-(methylsulfonyl) picolinamide] in this work.
An IC50 [1, 5] of less than 0.25 µM and an IC50 [2, 6] of 1 to 5 µM were found for `Cc1cc([C@@H](C)Nc2ccc(Cl)nc2C(=O)NS(C)(=O)=O)c2nc(N3CCC4(CCN(c5ccn(C)n5)CC4)C3)n(C)c(=O)c2c1` [Compound 358, (R)-6-chloro-3-((1-(3,6-dimethyl-2-(8-(1-methyl-1H-pyrazol-3-yl)-2,8-diazaspiro[4.5]decan-2-yl)-4-oxo-3,4-dihydroquinazolin-8-yl)ethyl)amino)-N-(methylsulfonyl) picolinamide] in this work.
An IC50 [1, 5] of less than 0.25 µM and an IC50 [2, 6] of 1 to 5 µM were found for `CC(=O)Nc1ccc(C2CCN(c3nc4c([C@@H](C)Nc5ccc(Cl)nc5C(=O)NS(C)(=O)=O)cc(C)cc4c(=O)n3C)CC2)cn1` [Compound 254, (R)-3-((1-(2-(4-(6-acetamidopyridin-3-yl)piperidin-1-yl)-3,6-dimethyl-4-oxo-3,4-dihydroquinazolin-8-yl)ethyl)amino)-6-chloro-N-(methylsulfonyl) picolinamide] in this work.
